Measurements reported in patent publication US20060252807A1, “Novel ortho-terphenyl inhibitors of p38 kinase and methods of treating inflammatory disorders” (Kalypsys, Inc., priority 2005, published 2006).

molecular target: T1, active p38 alpha enzyme (Upstate Biotechnology) (Homo sapiens, UniProt Q16539); test: p38α biochemical assay (ATP turnover, luminescent detection, Cambrex PKlight); conditions: p38α biochemical assay, Table 1 Biological Activity
T1 construct: purchased Upstate Biotechnology
T1 sequence (Q16539 whole entry): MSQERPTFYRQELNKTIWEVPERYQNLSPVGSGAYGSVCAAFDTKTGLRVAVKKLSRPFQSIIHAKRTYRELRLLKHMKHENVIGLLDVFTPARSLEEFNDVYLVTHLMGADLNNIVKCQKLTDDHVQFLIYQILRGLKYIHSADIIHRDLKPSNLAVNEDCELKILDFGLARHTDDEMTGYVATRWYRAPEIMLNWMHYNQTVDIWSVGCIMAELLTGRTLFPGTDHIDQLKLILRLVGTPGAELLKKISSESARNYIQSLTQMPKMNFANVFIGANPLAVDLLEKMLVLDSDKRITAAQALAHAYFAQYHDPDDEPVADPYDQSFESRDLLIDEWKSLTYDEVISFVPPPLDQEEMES
Description: The p38α biochemical assay employed is based on measurement of total ATP turnover following enzyme incubation with substrate in the presence of ATP with the use of a luminescent detection reagent (Cambrex PKlight). The assays were performed in 1536-well white opaque plates.
The final volume was 7.5005 μL as prepared prepared from the addition of 5 ul of kinase reaction (p38 alpah+MapkapK2+ATP) with 0.0005 μL compound dissolved in DMSO, and 2.5 ul of the detection reagent. Assay buffer contains the following reagents to give final concentration in the assay: 200 mM Tris, 100 mM MgCl2, 1.5 mM EGTA, 4 mM CaCl2, 20 mM MOPS, 1 mM EDTA, 1% glycerol, 0.1% B-Mecaptoethanol, and 1 mg/ml BSA. Test compounds are pinned using proprietary pintool technology (Kalypsys, Inc) and delivered as […] amounts into the 5 ul mixture of active p38 alpha enzyme (Upstate Biotechnology) and MapkapK2 (Upstate Biotechnology) whole protein as a substrate for phosphorylation in the presence of 1.4 uM final concentration ATP. Reactions are incubated at 30C for 2 hours and detection reagent is added in 2.5 ul/well amounts. Assay is read using a Perkin Elmer Viewlux.

Row | SMILES | IC50
1 | CC(C)NC(=O)c1csc(-c2oc(CNC(=O)c3ccccc3Cl)nc2-c2ccc(F)cc2)n1 [Example 151] | ≤ 1000 nM
2 | CC(C)NC(=O)c1csc(-c2oc(CNC(=O)c3cccnc3Cl)nc2-c2ccc(F)cc2)n1 [Example 153] | ≤ 1000 nM
3 | CC(C)NC(=O)c1csc(-c2oc(CNC(=O)c3cc(Cl)ccn3)nc2-c2ccc(F)cc2)n1 [Example 155] | > 1000 nM
4 | CC(C)NC(=O)c1csc(-c2oc(CNC(=O)c3ccncc3Cl)nc2-c2ccc(F)cc2)n1 [Example 156] | ≤ 1000 nM
5 | CC(C)NC(=O)c1csc(-c2oc(CNC(=O)c3c(F)cccc3F)nc2-c2ccc(F)cc2)n1 [Example 157] | ≤ 1000 nM
6 | CC(C)NC(=O)c1csc(-c2oc(CNC(=O)c3cccc(F)c3F)nc2-c2ccc(F)cc2)n1 [Example 158] | ≤ 1000 nM
7 | CC(C)NC(=O)c1csc(-c2oc(CNC(=O)c3ccc(F)cc3F)nc2-c2ccc(F)cc2)n1 [Example 159] | ≤ 1000 nM
8 | CC(CC(=O)NCc1nc(-c2ccc(F)cc2)c(-c2nc(C(=O)NC(C)C)cs2)o1)CC(C)(C)C (stereo not drawn) [Example 162] | > 1000 nM
9 | CC(C)NC(=O)c1csc(-c2oc(CNC(=O)c3cc4ccccc4o3)nc2-c2ccc(F)cc2)n1 [Example 163] | > 1000 nM
10 | CC(C)NC(=O)c1csc(-c2oc(CNC(=O)C3CCc4ccccc43)nc2-c2ccc(F)cc2)n1 (stereo not drawn) [Example 164] | > 1000 nM
11 | CC(C)NC(=O)c1csc(-c2oc(CNC(=O)C(Cl)(Cl)Cl)nc2-c2ccc(F)cc2)n1 [Example 165] | > 1000 nM
12 | CC(C)NC(=O)c1csc(-c2oc(CNC(=O)/C=C/c3ccccc3O)nc2-c2ccc(F)cc2)n1 [Example 166] | ≤ 1000 nM
13 | CC(C)NC(=O)c1csc(-c2oc(CNC(=O)/C=C/c3cccc(O)c3)nc2-c2ccc(F)cc2)n1 [Example 168] | ≤ 1000 nM
14 | CC(=O)c1ccccc1C(=O)NCc1nc(-c2ccc(F)cc2)c(-c2nc(C(=O)NC(C)C)cs2)o1 [Example 170] | > 1000 nM
15 | Cc1ccccc1CCC(=O)NCc1nc(-c2ccc(F)cc2)c(-c2nc(C(=O)NC(C)C)cs2)o1 [Example 172] | > 1000 nM
16 | Cc1cccc(CCC(=O)NCc2nc(-c3ccc(F)cc3)c(-c3nc(C(=O)NC(C)C)cs3)o2)c1 [Example 173] | > 1000 nM
17 | CCC(C(=O)NCc1nc(-c2ccc(F)cc2)c(-c2nc(C(=O)NC(C)C)cs2)o1)c1ccccc1 (stereo not drawn) [Example 174] | > 1000 nM
18 | Cc1cc(C)c(C(=O)NCc2nc(-c3ccc(F)cc3)c(-c3nc(C(=O)NC(C)C)cs3)o2)c(C)c1 [Example 175] | > 1000 nM
19 | CC(C)NC(=O)c1csc(-c2oc(CNC(=O)/C=C/c3ccccc3F)nc2-c2ccc(F)cc2)n1 [Example 178] | ≤ 1000 nM

Row | SMILES | IC50
20 | CCOc1ccccc1C(=O)NCc1nc(-c2ccc(F)cc2)c(-c2nc(C(=O)NC(C)C)cs2)o1 [Example 179] | > 1000 nM
21 | Cc1ccccc1OCC(=O)NCc1nc(-c2ccc(F)cc2)c(-c2nc(C(=O)NC(C)C)cs2)o1 [Example 180] | > 1000 nM
22 | CC(C)NC(=O)c1csc(-c2oc(CNC(=O)CCc3ccccc3O)nc2-c2ccc(F)cc2)n1 [Example 181] | ≤ 1000 nM
23 | CC(C)NC(=O)c1csc(-c2oc(CNC(=O)C(C)c3ccc(O)cc3)nc2-c2ccc(F)cc2)n1 (stereo not drawn) [Example 183] | ≤ 1000 nM
24 | CC(C)NC(=O)c1csc(-c2oc(CNC(=O)c3ccccc3[N+](=O)[O-])nc2-c2ccc(F)cc2)n1 [Example 184] | ≤ 1000 nM
25 | CC(C)NC(=O)c1csc(-c2oc(CNC(=O)Cc3c(F)cccc3F)nc2-c2ccc(F)cc2)n1 [Example 193] | ≤ 1000 nM
26 | CC(C)NC(=O)c1csc(-c2oc(CNC(=O)c3cccc4ccccc34)nc2-c2ccc(F)cc2)n1 [Example 194] | ≤ 1000 nM
27 | CC(C)NC(=O)c1csc(-c2oc(CNC(=O)c3c(F)cccc3Cl)nc2-c2ccc(F)cc2)n1 [Example 200] | ≤ 1000 nM
28 | CC(C)NC(=O)c1csc(-c2oc(CNC(=O)CNC(=O)OC(C)(C)C)nc2-c2ccc(F)cc2)n1 [Example 201] | > 1000 nM
29 | Cc1c(C(=O)NCc2nc(-c3ccc(F)cc3)c(-c3nc(C(=O)NC(C)C)cs3)o2)oc2ccccc12 [Example 202] | > 1000 nM
30 | CC(C)NC(=O)c1csc(-c2oc(CNC(=O)CC3Cc4ccccc4C3)nc2-c2ccc(F)cc2)n1 [Example 203] | > 1000 nM
31 | CC(C)NC(=O)c1csc(-c2oc(CNC(=O)C3CCc4ccccc4C3)nc2-c2ccc(F)cc2)n1 (stereo not drawn) [Example 204] | > 1000 nM
32 | COc1ccccc1/C=C/C(=O)NCc1nc(-c2ccc(F)cc2)c(-c2nc(C(=O)NC(C)C)cs2)o1 [Example 205] | > 1000 nM
33 | CC(C)NC(=O)c1csc(-c2oc(CNC(=O)c3csc4ccccc34)nc2-c2ccc(F)cc2)n1 [Example 206] | > 1000 nM
34 | CC(C)NC(=O)c1csc(-c2oc(CNC(=O)c3cc4ccccc4s3)nc2-c2ccc(F)cc2)n1 [Example 207] | ≤ 1000 nM
35 | CCCCc1ccc(C(=O)NCc2nc(-c3ccc(F)cc3)c(-c3nc(C(=O)NC(C)C)cs3)o2)cc1 [Example 208] | > 1000 nM
36 | CC(C)NC(=O)c1csc(-c2oc(CNC(=O)c3ccc(C(C)(C)C)cc3)nc2-c2ccc(F)cc2)n1 [Example 209] | > 1000 nM
37 | CC(C)NC(=O)c1csc(-c2oc(CNC(=O)c3ccc(N(C)C=O)cc3)nc2-c2ccc(F)cc2)n1 [Example 210] | > 1000 nM

Results, then the compound that gave them:

Row | IC50 | SMILES
38 | > 1000 nM | Cc1ccc(O)c(C(=O)NCc2nc(-c3ccc(F)cc3)c(-c3nc(C(=O)NC(C)C)cs3)o2)c1 [Example 145]
39 | ≤ 1000 nM | CC(C)NC(=O)c1csc(-c2oc(CNC(=O)c3cc(O)ccc3O)nc2-c2ccc(F)cc2)n1 [Example 146]
40 | ≤ 1000 nM | CC(C)NC(=O)c1csc(-c2oc(CNC(=O)c3cccc(O)c3O)nc2-c2ccc(F)cc2)n1 [Example 147]
41 | ≤ 1000 nM | CC(C)NC(=O)c1csc(-c2oc(CNC(=O)c3ccc(O)cc3O)nc2-c2ccc(F)cc2)n1 [Example 148]
42 | > 1000 nM | Cc1ccc(C(=O)NCc2nc(-c3ccc(F)cc3)c(-c3nc(C(=O)NC(C)C)cs3)o2)cc1F [Example 149]
43 | ≤ 1000 nM | Cc1ccc(F)cc1C(=O)NCc1nc(-c2ccc(F)cc2)c(-c2nc(C(=O)NC(C)C)cs2)o1 [Example 150]
44 | ≤ 1000 nM | CC(C)NC(=O)c1csc(-c2oc(CNC(=O)c3ccc(Cl)nc3)nc2-c2ccc(F)cc2)n1 [Example 152]
45 | > 1000 nM | CC(C)NC(=O)c1csc(-c2oc(CNC(=O)c3ccnc(Cl)c3)nc2-c2ccc(F)cc2)n1 [Example 154]
46 | > 1000 nM | CC(C)NC(=O)c1csc(-c2oc(CNC(=O)c3cc(F)cc(F)c3)nc2-c2ccc(F)cc2)n1 [Example 160]
47 | > 1000 nM | CC(C)NC(=O)c1csc(-c2oc(CNC(=O)c3ccc(F)c(F)c3)nc2-c2ccc(F)cc2)n1 [Example 161]
48 | ≤ 1000 nM | CC(=O)c1ccc(C(=O)NCc2nc(-c3ccc(F)cc3)c(-c3nc(C(=O)NC(C)C)cs3)o2)cc1 [Example 167]
49 | > 1000 nM | CC(=O)c1cccc(C(=O)NCc2nc(-c3ccc(F)cc3)c(-c3nc(C(=O)NC(C)C)cs3)o2)c1 [Example 169]
50 | > 1000 nM | CC(C)NC(=O)c1csc(-c2oc(CNC(=O)c3ccc(C(C)C)cc3)nc2-c2ccc(F)cc2)n1 [Example 171]
51 | > 1000 nM | CCCc1ccc(C(=O)NCc2nc(-c3ccc(F)cc3)c(-c3nc(C(=O)NC(C)C)cs3)o2)cc1 [Example 176]
52 | > 1000 nM | CC(C)NC(=O)c1csc(-c2oc(CNC(=O)c3ccc4c(c3)OCO4)nc2-c2ccc(F)cc2)n1 [Example 177]
53 | ≤ 1000 nM | COc1ccccc1CC(=O)NCc1nc(-c2ccc(F)cc2)c(-c2nc(C(=O)NC(C)C)cs2)o1 [Example 182]
54 | > 1000 nM | CC(C)NC(=O)c1csc(-c2oc(CNC(=O)c3cccc([N+](=O)[O-])c3)nc2-c2ccc(F)cc2)n1 [Example 185]
55 | > 1000 nM | COc1cccc(O)c1C(=O)NCc1nc(-c2ccc(F)cc2)c(-c2nc(C(=O)NC(C)C)cs2)o1 [Example 186]
56 | > 1000 nM | COc1ccc(O)c(C(=O)NCc2nc(-c3ccc(F)cc3)c(-c3nc(C(=O)NC(C)C)cs3)o2)c1 [Example 187]
57 | > 1000 nM | COc1ccc(C(=O)NCc2nc(-c3ccc(F)cc3)c(-c3nc(C(=O)NC(C)C)cs3)o2)c(O)c1 [Example 188]
58 | > 1000 nM | COc1ccc(C(=O)NCc2nc(-c3ccc(F)cc3)c(-c3nc(C(=O)NC(C)C)cs3)o2)cc1O [Example 189]
59 | ≤ 1000 nM | CC(C)NC(=O)c1csc(-c2oc(CNC(=O)c3cc(O)c(O)c(O)c3)nc2-c2ccc(F)cc2)n1 [Example 190]
60 | ≤ 1000 nM | CC(C)NC(=O)c1csc(-c2oc(CNC(=O)Cc3ccc(O)c(F)c3)nc2-c2ccc(F)cc2)n1 [Example 191]
61 | > 1000 nM | Cc1cc(C(=O)NCc2nc(-c3ccc(F)cc3)c(-c3nc(C(=O)NC(C)C)cs3)o2)cc(Cl)n1 [Example 192]
62 | > 1000 nM | CC(C)NC(=O)c1csc(-c2oc(CNC(=O)c3ccc(Cl)cc3O)nc2-c2ccc(F)cc2)n1 [Example 195]
63 | > 1000 nM | CC(C)NC(=O)c1csc(-c2oc(CNC(=O)c3cc(Cl)ccc3O)nc2-c2ccc(F)cc2)n1 [Example 196]
64 | ≤ 1000 nM | CC(C)NC(=O)c1csc(-c2oc(CNC(=O)c3ccc4ncccc4c3)nc2-c2ccc(F)cc2)n1 [Example 197]
65 | ≤ 1000 nM | CC(C)NC(=O)c1csc(-c2oc(CNC(=O)c3cnc(O)c(Cl)c3)nc2-c2ccc(F)cc2)n1 [Example 198]
66 | ≤ 1000 nM | CC(C)NC(=O)c1csc(-c2oc(CNC(=O)c3ccc(F)cc3Cl)nc2-c2ccc(F)cc2)n1 [Example 199]
